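Assay format: 96-well plates, 48-hour exposure. GI50: concentration for 50% inhibition of growth.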 Active and inactive are the calls of the source. No stated cut-off is given here; in the data, active = GI50 up to about 1.1 µM and inactive = higher.
Legend:
Test in all cases: NCI-60 cell line screen, 48 h
[1] = test system: UO-31
[2] = test system: CCRF-CEM
[3] = test system: OVCAR-4
[4] = test system: A549
[5] = test system: SR
[6] = test system: ACHN
[7] = test system: K562
[8] = test system: HL-60
[9] = test system: COLO 205
[10] = test system: HOP-62
[11] = test system: NCI-H23
[12] = test system: SF-539
[13] = test system: MDA-MB-231
[14] = test system: OVCAR-3
[15] = test system: RXF 393
[16] = test system: HOP-92
[17] = test system: SF-268
[18] = test system: SK-MEL-28
[19] = test system: T47D

SMILES | GI50 [1] | GI50 [2] | GI50 [3] | GI50 [4] | GI50 [5] | GI50 [6] | GI50 [7] | GI50 [8] | GI50 [9] | GI50 [10] | GI50 [11] | GI50 [12] | GI50 [13] | GI50 [14] | GI50 [15] | GI50 [16] | GI50 [17] | GI50 [18] | GI50 [19]
c1ccc(C/C(=N\Nc2nc3ccccc3o2)c2ccccn2)cc1 | 0.09 µM (active) | < 0.0122 µM (active) | < 0.01 µM (active) | 0.437 µM (active) | 0.0424 µM (active) | 0.0202 µM (active) | 0.027 µM (active) | 0.0698 µM (active) | < 0.01 µM (active) | 0.0354 µM (active) | 0.0382 µM (active) | 0.114 µM (active) | 0.126 µM (active) | 0.0137 µM (active) | 0.0851 µM (active) | 0.0281 µM (active) | 0.0805 µM (active) | – | –
O=C(Cc1ccc(O)c(O)c1)NCc1c[nH]c2ccccc12 | 42.3 µM (inactive) | 6.95 µM (inactive) | 37 µM (inactive) | 64.7 µM (inactive) | – | – | 38.5 µM (inactive) | 27 µM (inactive) | 42 µM (inactive) | 17.8 µM (inactive) | 39.1 µM (inactive) | 43.8 µM (inactive) | – | 42.3 µM (inactive) | 29 µM (inactive) | > 100 µM (inactive) | 37.8 µM (inactive) | 83.6 µM (inactive) | > 100 µM (inactive)
Cc1cc(S(=O)(=O)N2CCNNC2=O)c(S)cc1Cl | > 100 µM (inactive) | 37 µM (inactive) | > 100 µM (inactive) | 56.4 µM (inactive) | > 100 µM (inactive) | > 100 µM (inactive) | 37.2 µM (inactive) | 39.7 µM (inactive) | > 100 µM (inactive) | – | – | 37 µM (inactive) | 23.8 µM (inactive) | > 100 µM (inactive) | 13.7 µM (inactive) | 48.4 µM (inactive) | > 100 µM (inactive) | 20 µM (inactive) | –
COc1ccc(C2c3cc4c(c(OC)c3CC3OCC(=O)C32)OCO4)cc1OC (centres undefined) | 0.074 µM (active) | 0.0371 µM (active) | 0.0364 µM (active) | 0.0647 µM (active) | < 0.01 µM (active) | < 0.01 µM (active) | 0.0504 µM (active) | < 0.01 µM (active) | 0.0267 µM (active) | – | 0.0365 µM (active) | 0.0246 µM (active) | 0.209 µM (active) | – | 0.0212 µM (active) | 25 µM (inactive) | 0.416 µM (active) | 31.9 µM (inactive) | –
CNc1nnc(CCCCCCCCc2nnc(NC)o2)o1 | > 100 µM (inactive) | 16.2 µM (inactive) | > 100 µM (inactive) | > 100 µM (inactive) | – | > 100 µM (inactive) | 31.9 µM (inactive) | 32.4 µM (inactive) | > 100 µM (inactive) | 35.3 µM (inactive) | > 100 µM (inactive) | > 100 µM (inactive) | > 100 µM (inactive) | 25.9 µM (inactive) | > 100 µM (inactive) | > 100 µM (inactive) | – | > 100 µM (inactive) | –
CC1CN(C)c2ccccc2N=C1NN (centres undefined) | > 100 µM (inactive) | 87.5 µM (inactive) | > 100 µM (inactive) | > 100 µM (inactive) | – | > 100 µM (inactive) | 88.3 µM (inactive) | > 100 µM (inactive) | > 100 µM (inactive) | > 100 µM (inactive) | > 100 µM (inactive) | – | > 100 µM (inactive) | > 100 µM (inactive) | 0.217 µM (active) | – | > 100 µM (inactive) | > 100 µM (inactive) | –
COc1ccc(OC)c(C2CCCc3c2cnc2nc(N)nc(N)c32)c1 (centres undefined) | – | – | > 100 µM (inactive) | < 0.01 µM (active) | < 0.01 µM (active) | < 0.01 µM (active) | < 0.01 µM (active) | < 0.01 µM (active) | 0.352 µM (active) | – | < 0.01 µM (active) | < 0.0119 µM (active) | > 100 µM (inactive) | – | < 0.0129 µM (active) | 0.863 µM (active) | – | > 100 µM (inactive) | –

Source: ChEMBL document CHEMBL1201862, “PubChem BioAssay data set” (2004)
